What all share (format): cell-based
One experiment concerns A. niger. The experiment is described as follows: agar dilution test, A. niger. The settings on record: Aspergillus niger, read-out: Minimum Inhibitory Concentration, An. The source says:
(§1) In representative operations, the products of the invention when tested for antimicrobial activity using conventional agar dilution tests gave complete growth inhibition against the following organisms at the indicated concentrations in parts per million: […]
Background: In agar dilution, organisms are placed on agar that contains the substance at set levels.

In the next experiment the test system is P. chrysogenum. Description: agar dilution test, P. chrysogenum. The conditions noted are these: Penicillium chrysogenum, read-out: Minimum Inhibitory Concentration, Pen.
Text: as §1

For a further experiment, the system named is C. pelliculosa. Description: agar dilution test, C. pelliculosa. The settings on record: Hansenula anomala, read-out: Minimum Inhibitory Concentration, Cp.
Text: as §1

Another experiment deals with S. typhosa. The experiment is described as follows: agar dilution test, S. typhosa. The settings on record: read-out: Minimum Inhibitory Concentration, St.
Text: as §1

Another experiment relates to S. cerevisiae. Description: agar dilution test, S. cerevisiae. The settings on record: Saccharomyces cerevisiae, read-out: Minimum Inhibitory Concentration, Sc.
Text: as §1

For another experiment, the system named is A. aerogenes. The experiment is described as follows: agar dilution test, A. aerogenes. The settings on record: Klebsiella aerogenes, read-out: Minimum Inhibitory Concentration, Aa.
Text: as §1

The subject of a further experiment is S. aureus. Description: agar dilution test, S. aureus. The conditions noted are these: Staphylococcus aureus, complete growth inhibition, read-out: Minimum Inhibitory Concentration, Sa.
Text: as §1

For another experiment, the system named is P. aeruginosa. Description: agar dilution test, P. aeruginosa. The conditions noted are these: Pseudomonas aeruginosa, read-out: Minimum Inhibitory Concentration, Pa.
Text: as §1

Setting [1] is: A. niger, agar dilution, complete growth inhibition.
Setting [2] is: P. chrysogenum, agar dilution, complete growth inhibition.
Setting [3] is: C. pelliculosa, agar dilution, complete growth inhibition.
Setting [4] is: S. cerevisiae, agar dilution, complete growth inhibition.
[5] abbreviates: A. aerogenes, agar dilution, complete growth inhibition.
Setting [6] is: P. aeruginosa, agar dilution, complete growth inhibition.

The source of these data is patent USRE29225E, “N-substituted derivatives of 3-carboxamide and 3-thiocarboxamide” (The Dow Chemical Company, priority 1976, dated 1977).

≈ marks a conversion by molar mass, not a printed value. Read-outs that look alike come from different tables or passages of the source.

As for `Cl/C=C\C[N+]12CN3CN(CN(C3)C1)C2.[Cl-]` [Cis, cis-1-(3-chloro-2-propenyl)-3,5,7-triaza-1-azoniatricyclo (3,3,1,1^3,7) decane chloride, reference compound], the MIC in the experiment with A. niger was above 500 µg/mL; in the experiment on P. chrysogenum, 500 µg/mL; in the experiment with C. pelliculosa it was 500 µg/mL; in the experiment with S. typhosa (S. typhosa, agar dilution, complete growth inhibition) it was 25 µg/mL; in the experiment on S. cerevisiae, 250 µg/mL; in the experiment with A. aerogenes, 50 µg/mL. Moreover, the results for the MIC in the experiment with S. aureus and in the experiment with P. aeruginosa were 50 µg/mL and 75 µg/mL, respectively.

With `O=C(Nc1ccccc1)N1CN2CN(C/C=C\Cl)CN(C2)C1` [Example 1, N-Phenyl-3-Carboxamide-7-Cis(3-Chloro-2-Propenyl)-1,3,5,7-Tetraazabicyclo(3,3,1)Nonane], the MIC with A. niger (setting [1]) came out at 500 µg/mL (≈ 1550 µM); with P. chrysogenum (setting [2]) it was 250 µg/mL (≈ 777 µM); with C. pelliculosa (setting [3]) it was 250 µg/mL (≈ 777 µM); with S. typhosa, 25 µg/mL (≈ 77.7 µM); in the experiment with S. cerevisiae (setting [4]), 250 µg/mL (≈ 777 µM); in the experiment on A. aerogenes (setting [5]), 50 µg/mL (≈ 155 µM). The MIC in the experiment on S. aureus and in the experiment on P. aeruginosa (setting [6]) was 50 µg/mL (≈ 155 µM) each time.

Turning to `S=C(Nc1ccccc1)N1CN2CN(C/C=C\Cl)CN(C2)C1` [Example 2, N-Phenyl-3-.[.Thiocarboxamide.]..Iadd.Methanethioamide.Iaddend.-7-Cis-(3-Chloro-2-Propenyl)-1,3,5,7-Tetraazabicyclo(3,3,1)Nonane], the MIC in the experiment on A. niger (setting [1]) was 250 µg/mL (≈ 740 µM); in the experiment with P. chrysogenum (setting [2]), 500 µg/mL (≈ 1480 µM); in the experiment on C. pelliculosa (setting [3]) it was above 500 µg/mL; in the experiment with S. typhosa, 25 µg/mL (≈ 74 µM); in the experiment with S. cerevisiae (setting [4]), 250 µg/mL (≈ 740 µM); in the experiment with A. aerogenes (setting [5]) it was 50 µg/mL (≈ 148 µM). Further, the MIC in the experiment on S. aureus and in the experiment with P. aeruginosa (setting [6]) was 75 µg/mL (≈ 222 µM) each time.

With `COc1ccc(NC(=O)N2CN3CN(C/C=C\Cl)CN(C3)C2)cc1` [Example 3 a)], the MIC worked out at 500 µg/mL (≈ 1420 µM) with A. niger (setting [1]); 250 µg/mL (≈ 711 µM) in the experiment with P. chrysogenum (setting [2]); 250 µg/mL (≈ 711 µM) with C. pelliculosa (setting [3]); 10 µg/mL (≈ 28.4 µM) in the experiment with S. typhosa; 250 µg/mL (≈ 711 µM) with S. cerevisiae (setting [4]); 75 µg/mL (≈ 213 µM) in the experiment with A. aerogenes (setting [5]). For the same molecule, the MIC with S. aureus worked out at 50 µg/mL (≈ 142 µM); with P. aeruginosa (setting [6]) it was 75 µg/mL (≈ 213 µM).

Turning to `Cc1ccc(NC(=O)N2CN3CN(C/C=C\Cl)CN(C3)C2)cc1` [Example 3 b)], the MIC was 250 µg/mL (≈ 744 µM) with A. niger (setting [1]); 100 µg/mL (≈ 298 µM) in the experiment with P. chrysogenum (setting [2]); 250 µg/mL (≈ 744 µM) with C. pelliculosa (setting [3]); 25 µg/mL (≈ 74.4 µM) in the experiment with S. typhosa; 250 µg/mL (≈ 744 µM) in the experiment with S. cerevisiae (setting [4]); 50 µg/mL (≈ 149 µM) in the experiment on A. aerogenes (setting [5]). Further, the MIC with S. aureus and in the experiment with P. aeruginosa (setting [6]) was 50 µg/mL (≈ 149 µM) in each case.

`Cc1ccc(C)c(NC(=O)N2CN3CN(C/C=C\Cl)CN(C3)C2)c1` [Example 3 c)]: the MIC stood at 500 µg/mL (≈ 1430 µM) with A. niger (setting [1]); 250 µg/mL (≈ 715 µM) in the experiment on P. chrysogenum (setting [2]); 250 µg/mL (≈ 715 µM) in the experiment with C. pelliculosa (setting [3]); 50 µg/mL (≈ 143 µM) in the experiment with S. typhosa; 250 µg/mL (≈ 715 µM) with S. cerevisiae (setting [4]); 75 µg/mL (≈ 214 µM) in the experiment with A. aerogenes (setting [5]). In addition, the MIC in the experiment with S. aureus and in the experiment on P. aeruginosa (setting [6]) was 75 µg/mL (≈ 214 µM) throughout.

Regarding `O=C(Nc1ccc(Cl)cc1)N1CN2CN(C/C=C\Cl)CN(C2)C1` [Example 3 d)], the MIC came out at 500 µg/mL (≈ 1400 µM) in the experiment with A. niger (setting [1]); 250 µg/mL (≈ 702 µM) in the experiment on P. chrysogenum (setting [2]); 250 µg/mL (≈ 702 µM) in the experiment on C. pelliculosa (setting [3]); 25 µg/mL (≈ 70.2 µM) in the experiment with S. typhosa; 250 µg/mL (≈ 702 µM) in the experiment on S. cerevisiae (setting [4]); 75 µg/mL (≈ 211 µM) in the experiment with A. aerogenes (setting [5]). Besides, the values for the MIC in the experiment on S. aureus and in the experiment with P. aeruginosa (setting [6]) were 75 µg/mL (≈ 211 µM) and 100 µg/mL (≈ 281 µM), respectively.

In the case of `O=C(Nc1ccc(Br)cc1)N1CN2CN(C/C=C\Cl)CN(C2)C1` [Example 3 e)], the MIC was determined as 500 µg/mL (≈ 1250 µM) with A. niger (setting [1]); 250 µg/mL (≈ 624 µM) in the experiment with P. chrysogenum (setting [2]); 250 µg/mL (≈ 624 µM) with C. pelliculosa (setting [3]); 25 µg/mL (≈ 62.4 µM) in the experiment with S. typhosa; 250 µg/mL (≈ 624 µM) in the experiment with S. cerevisiae (setting [4]); 100 µg/mL (≈ 250 µM) in the experiment with A. aerogenes (setting [5]). Further, the figures for the MIC in the experiment with S. aureus and in the experiment with P. aeruginosa (setting [6]) were 100 µg/mL (≈ 250 µM) and 250 µg/mL (≈ 624 µM), respectively.

As for `O=C(Nc1cc(Cl)ccc1Cl)N1CN2CN(C/C=C\Cl)CN(C2)C1` [Example 3 f)], the MIC came to 500 µg/mL (≈ 1280 µM) with A. niger (setting [1]); 250 µg/mL (≈ 640 µM) in the experiment on P. chrysogenum (setting [2]); 250 µg/mL (≈ 640 µM) in the experiment with C. pelliculosa (setting [3]); 50 µg/mL (≈ 128 µM) in the experiment on S. typhosa; 250 µg/mL (≈ 640 µM) in the experiment with S. cerevisiae (setting [4]); 75 µg/mL (≈ 192 µM) in the experiment with A. aerogenes (setting [5]). In addition, the MIC is 75 µg/mL (≈ 192 µM) in the experiment with S. aureus and 100 µg/mL (≈ 256 µM) in the experiment on P. aeruginosa (setting [6]).
